# Measured values as given in patent US11471494B2, “Microorganisms programmed to produce immune modulators and anti-cancer therapeutics in tumor cells” (Synlogic Operating Company, Inc., priority 2017, dated 2022).
# What was measured:
# [1] = tested on: NK cells, γδT cells and CD8+ T cells; conditions: upon treatment; cited from earlier work
# CTLA-4 [2] = molecular target: T1, CTLA-4 (Rattus norvegicus, UniProt Q62859); conditions: CTLA-4 from rats; cited from earlier work
# T1 sequence (Q62859 1-223): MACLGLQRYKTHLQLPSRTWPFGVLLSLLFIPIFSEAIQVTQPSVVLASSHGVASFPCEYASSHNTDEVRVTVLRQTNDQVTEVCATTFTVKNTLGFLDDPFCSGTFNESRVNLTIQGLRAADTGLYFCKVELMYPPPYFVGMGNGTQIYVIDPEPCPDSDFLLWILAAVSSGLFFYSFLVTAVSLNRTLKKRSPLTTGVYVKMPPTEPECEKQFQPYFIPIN
# CTLA-4 [3] = molecular target: CTLA-4 (Mus musculus, UniProt P09793); conditions: CTLA-4 from mice; cited from earlier work
# CTLA-4 [4] = molecular target: T2, CTLA-4 (Oryctolagus cuniculus, UniProt P42072); conditions: CTLA-4 from rabbits; cited from earlier work
# T2 sequence (P42072 36-223): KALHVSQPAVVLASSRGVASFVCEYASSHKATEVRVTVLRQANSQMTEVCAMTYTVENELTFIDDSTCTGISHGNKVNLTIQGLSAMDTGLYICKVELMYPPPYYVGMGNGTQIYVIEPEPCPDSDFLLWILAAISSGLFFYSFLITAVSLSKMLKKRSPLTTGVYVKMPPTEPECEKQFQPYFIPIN
# kynurenine = test: Tumoral kynurenine levels, CT26 murine tumor model (Example 13); type: in vivo, mouse; conditions: Study 2; INCB024360 oral gavage twice daily
# CTLA-4 (Mus musculus, UniProt P09793), sequence (P09793 36-223): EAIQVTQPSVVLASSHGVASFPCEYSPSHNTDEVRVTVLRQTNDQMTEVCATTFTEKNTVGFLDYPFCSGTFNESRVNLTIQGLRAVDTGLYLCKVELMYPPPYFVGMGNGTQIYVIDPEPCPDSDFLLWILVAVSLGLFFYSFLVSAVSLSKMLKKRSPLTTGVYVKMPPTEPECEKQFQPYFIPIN
compound,measurement,setting,value
recombinant human IL-15: recombinant human IL-15 of a first-in-human clinical trial,expansion of NK cells,[1],10 fold
same,proliferation of γδT cells and CD8+ T cells,[1],significantly increased
Ipilimumab,cross-reactivity with or binding to CTLA-4,CTLA-4 [2],did not show cross-reactivity with or binding to
same,cross-reactivity with or binding to CTLA-4,CTLA-4 [3],did not show cross-reactivity with or binding to
same,cross-reactivity with or binding to CTLA-4,CTLA-4 [4],did not show cross-reactivity with or binding to
NS(=O)(=O)NCCNc1nonc1C(=NO)Nc1ccc(F)c(Br)c1 [INCB024360],"Intratumoral kynurenine levels, SYN2028 compared with INCB024360",kynurenine,similar
